A word on the chromatographic logP: it is a lipophilicity value derived from retention on a column. Lower therefore signals lower lipophilicity.

One data set can be described thus: logP determination by retention times (calibration with alkan-2-ones). Conditions: * HPLC reversed-phase C18, 40° C., mobile phase 0.1% aqueous formic acid and acetonitrile, linear gradient 10% to 95% acetonitrile.
As to `CNc1nc(C)c(-c2ccnc(Nc3cccc(CNC(=O)OC(C)(C)C)c3)n2)s1` [Example 658, tert-butyl-[3-({4-[4-methyl-2-(methylamine)-1,3-thiazol-5-yl]pyrimidin-2-yl}amino)benzyl]carbamate], the logP is 1.99*.
On the same count and under the same terms, next, `CNc1nc(C)c(-c2ccnc(Nc3cccc(NC(C)=O)c3)n2)s1` [Example 684, N-[3-({4-[4-methyl-2-(methylamine)-1,3-thiazol-5-yl]pyrimidin-2-yl}amino)phenyl]acetamide]: 1.26*; `CC(=O)c1cccc(Nc2nccc(-c3sc(N(C)C)nc3C)n2)c1` [Example 685, 1-[3-({4-[2-(dimethylamine)-4-methyl-1,3-thiazol-5-yl]pyrimidin-2-yl}amino)phenyl]ethanone]: 1.89*.
Still for that read-out and setting: next, `Cc1nc(N(C)C)sc1-c1ccnc(Nc2cccc([N+](=O)[O-])c2)n1` [Example 686, 4-[2-(dimethylamine)-4-methyl-1,3-thiazol-5-yl]-N-(3-nitrophenyl)pyrimidine-2-amine]: 2.34*; `Cc1nc(N(C)C)sc1-c1ccnc(Nc2cccc(Cl)c2)n1` [Example 687, N-(3-chlorophenyl)-4-[2-(dimethylamine)-4-methyl-1,3-thiazol-5-yl]pyrimidine-2-amine]: 2.62*; `Cc1nc(N(C)C)sc1-c1ccnc(Nc2ccccc2)n1` [Example 688, 4-[2-(dimethylamine)-4-methyl-1,3-thiazol-5-yl]-N-phenylpyrimidine-2-amine]: 1.98*.
In the case of `Cc1cc(Nc2nccc(-c3sc(N(C)C)nc3C(F)(F)F)n2)ccc1F` [Example 692, 4-[2-(dimethylamine)-4-(trifluoromethyl)-1,3-thiazol-5-yl]-N-(4-fluoro-3-methylphenyl)pyrimidine-2-amine], the logP is 4.43*.
Consider `COC(=O)Nc1ccc(Nc2nccc(-c3sc(N(C)C)nc3C(F)(F)F)n2)cc1` [Example 694, methyl-[4-({4-[2-(dimethylamine)-4-(trifluoromethyl)-1,3-thiazol-5-yl]pyrimidin-2-yl}amino)phenyl]carbamate], for which the logP is 3.04*.
On the same count and under the same terms, next, `CN(C)c1nc(C(F)(F)F)c(-c2ccnc(Nc3cccc(Cl)c3)n2)s1` [Example 695, N-(3-chlorophenyl)-4-[2-(dimethylamine)-4-(trifluoromethyl)-1,3-thiazol-5-yl]pyrimidine-2-amine]: 4.51*; `CN(C)c1nc(C(F)(F)F)c(-c2ccnc(Nc3ccc(O)cc3)n2)s1` [Example 697, 4-({4-[2-(dimethylamine)-4-(trifluoromethyl)-1,3-thiazol-5-yl]pyrimidin-2-yl}amino)phenol]: 2.64*.

Staying with this data set, now noted: logP, * HPLC reversed-phase C18, 40° C., mobile phase 0.1% aqueous formic acid and acetonitrile, linear gradient 10% to 95% acetonitrile.
`Cc1nc(C(C)C)sc1-c1ccnc(Nc2ccc(CNC(=O)OC(C)(C)C)cc2)n1` [Example 633, tert-butyl-(4-{[4-(2-isopropyl-4-methyl-1,3-thiazol-5-yl)pyrimidin-2-yl]amino}benzyl)carbamate]: the chromatographic logP turned out to be 3.68.
On the same count and under the same terms, next, `COCc1nc(C)c(-c2ccnc(Nc3cccc(CNC(=O)OC(C)(C)C)c3)n2)s1` [Example 639, tert-butyl-[3-({4-[2-(methoxymethyl)-4-methyl-1,3-thiazol-5-yl]pyrimidin-2-yl}amino)benzyl]carbamate]: 2.94; `COCc1nc(C)c(-c2ccnc(Nc3ccc(CNC(=O)OC(C)(C)C)cc3)n2)s1` [Example 643, tert-butyl-[4-({4-[2-(methoxymethyl)-4-methyl-1,3-thiazol-5-yl]pyrimidin-2-yl}amino)benzyl]carbamate]: 2.99; `COC(=O)Nc1ccc(Nc2nccc(-c3sc(N)nc3C)n2)cc1` [Example 656, methyl-(4-{[4-(2-amino-4-methyl-1,3-thiazol-5-yl)pyrimidin-2-yl]amino}phenyl)carbamate]: 1.31.
Still for that read-out and setting: next, `COCC(C)Nc1nc(C)c(-c2ccnc(Nc3ccc(NS(C)(=O)=O)cc3)n2)s1` (stereo not drawn) [Example 657, N-{4-[(4-{2-[(2-methoxy-1-methylethyl)amino]-4-methyl-1,3-thiazol-5-yl}pyrimidin-2-yl)amino]phenyl}methanesulphonamide]: 1.53.
The same measure, in the same setting: next, `CC(=O)c1cccc(N(C(C)=O)c2nccc(-c3sc(C4CC4)nc3C)n2)c1` [Example 665, N-(3-acetylphenyl)-N-[4-(2-cyclopropyl-4-methyl-1,3-thiazol-5-yl)pyrimidin-2-yl]acetamide]: 2.43; `COc1cc(N(C(C)=O)c2nccc(-c3sc(C(C)C)nc3C)n2)cc(OC)c1OC` [Example 666, N-[4-(2-isopropyl-4-methyl-1,3-thiazol-5-yl)pyrimidin-2-yl]-N-(3,4,5-trimethoxyphenyl)acetamide]: 2.53; `COc1cc(N(C(C)=O)c2nccc(-c3sc(C)nc3C)n2)cc(OC)c1OC` [Example 667, N-[4-(2,4-dimethyl-1,3-thiazol-5-yl)pyrimidin-2-yl]-N-(3,4,5-trimethoxyphenyl)acetamide]: 1.9.
For the compound `CCc1nc(C)c(-c2ccnc(N(C(C)=O)c3ccccc3)n2)s1` [Example 668, N-[4-(2-ethyl-4-methyl-1,3-thiazol-5-yl)pyrimidin-2-yl]-N-phenylacetamide], the chromatographic logP is 2.33.
Same read-out and setting: next, `CCc1nc(C)c(-c2ccnc(N(C(C)=O)c3cc(OC)c(OC)c(OC)c3)n2)s1` [Example 669, N-[4-(2-ethyl-4-methyl-1,3-thiazol-5-yl)pyrimidin-2-yl]-N-(3,4,5-trimethoxyphenyl)acetamide]: 2.19; `CCc1nc(C)c(-c2ccnc(N(C(C)=O)c3cccc(C(C)=O)c3)n2)s1` [Example 671, N-(3-acetylphenyl)-N-[4-(2-ethyl-4-methyl-1,3-thiazol-5-yl)pyrimidin-2-yl]acetamide]: 2.23.
For the compound `COC(=O)Nc1ccc(Nc2nccc(-c3sc(C4CC4)nc3C)n2)cc1` [Example 672, methyl-(4-{[4-(2-cyclopropyl-4-methyl-1,3-thiazol-5-yl)pyrimidin-2-yl]amino}phenyl)carbamate], the chromatographic logP was determined as 2.51.
On the same count and under the same terms, next, `Cc1nc(C)c(-c2ccnc(Nc3ccc(N(C)C)c(Cl)c3)n2)s1` [Example 674, 2-chloro-N4-[4-(2,4-dimethyl-1,3-thiazol-5-yl)pyrimidin-2-yl]-N1,N1-dimethylbenzene-1,4-diamine]: 2; `COCCNc1nc(C)c(-c2ccnc(Nc3ccc(F)cc3)n2)s1` [Example 677, N-(4-fluorophenyl)-4-{2-[(2-methoxyethyl)amino]-4-methyl-1,3-thiazol-5-yl}pyrimidine-2-amine]: 1.9; `COCCNc1nc(C)c(-c2ccnc(Nc3ccccc3)n2)s1` [Example 678, 4-{2-[(2-methoxyethyl)amino]-4-methyl-1,3-thiazol-5-yl}-N-phenylpyrimidine-2-amine]: 1.82.
Same read-out and setting: next, `COCCNc1nc(C)c(-c2ccnc(Nc3cc(OC)c(OC)c(OC)c3)n2)s1` [Example 679, 4-{2-[(2-methoxyethyl)amino]-4-methyl-1,3-thiazol-5-yl}-N-(3,4,5-trimethoxyphenyl)pyrimidine-2-amine]: 1.74; `COCCNc1nc(C)c(-c2ccnc(Nc3cccc(Cl)c3)n2)s1` [Example 680, N-(3-chlorophenyl)-4-{2-[(2-methoxyethyl)amino]-4-methyl-1,3-thiazol-5-yl}pyrimidine-2-amine]: 2.28; `COCCNc1nc(C)c(-c2ccnc(Nc3cccc(OC)c3)n2)s1` [Example 681, 4-{2-[(2-methoxyethyl)amino]-4-methyl-1,3-thiazol-5-yl}-N-(3-methoxyphenyl)pyrimidine-2-amine]: 1.86.
Still for that read-out and setting: next, `COCCNc1nc(C)c(-c2ccnc(Nc3cccc(NC(C)=O)c3)n2)s1` [Example 682, N-{3-[(4-{2-[(2-methoxyethyl)amino]-4-methyl-1,3-thiazol-5-yl}pyrimidin-2-yl)amino]phenyl}acetamide]: 1.36; `COCCNc1nc(C)c(-c2ccnc(Nc3ccc(NC(C)=O)cc3)n2)s1` [Example 683, N-{4-[(4-{2-[(2-methoxyethyl)amino]-4-methyl-1,3-thiazol-5-yl}pyrimidin-2-yl)amino]phenyl}acetamide]: 1.35.
In the case of `COCCNc1nc(C)c(-c2ccnc(Nc3cccc(C(C)=O)c3)n2)s1` [Example 689, 1-{3-[(4-{2-[(2-methoxyethyl)amino]-4-methyl-1,3-thiazol-5-yl}pyrimidin-2-yl)amino]phenyl}ethanone], the chromatographic logP was 1.69.
`COCCNc1nc(C)c(-c2ccnc(Nc3cccc(O)c3)n2)s1` [Example 690, 3-[(4-{2-[(2-methoxyethyl)amino]-4-methyl-1,3-thiazol-5-yl}pyrimidin-2-yl)amino]phenol] showed a chromatographic logP of 1.38.
Consider `COCCNc1nc(C)c(-c2ccnc(Nc3ccc(NS(C)(=O)=O)cc3)n2)s1` [Example 691, N-{4-[(4-{2-[(2-methoxyethyl)amino]-4-methyl-1,3-thiazol-5-yl}pyrimidin-2-yl)amino]phenyl}methanesulphonamide], for which the chromatographic logP is 1.39.
Still for that read-out and setting: next, `COC(=O)Nc1ccc(Nc2nccc(-c3sc(C)nc3C(F)(F)F)n2)cc1` [Example 693, methyl-[4-({4-[2-methyl-4-(trifluoromethyl)-1,3-thiazol-5-yl]pyrimidin-2-yl}amino)phenyl]carbamate]: 2.7.
On the same count and under the same terms, next, `Cc1nc(C(F)(F)F)c(-c2ccnc(Nc3ccc(O)cc3)n2)s1` [Example 696, 4-({4-[2-methyl-4-(trifluoromethyl)-1,3-thiazol-5-yl]pyrimidin-2-yl}amino)phenol]: 2.39.
`CC(=O)Nc1ccc(Nc2nccc(-c3sc(C)nc3C(F)(F)F)n2)cc1` [Example 698, N-[4-({4-[2-methyl-4-(trifluoromethyl)-1,3-thiazol-5-yl]pyrimidin-2-yl}amino)phenyl]acetamide]: the chromatographic logP was 2.26. The chromatographic logP values of the last two compounds are within 0.2 log units of each other.
